Patent US20110190336A1, “AZABENZIMIDAZOLONES” (CARA THERAPEUTICS, INC., priority 2008, published 2011)

Biological target: T1, human DP2 receptor (Homo sapiens, UniProt Q9Y5Y4)
T1 construct: expressed in transfected cells; host or cells: CHO-K1 FLP-In (Invitrogen, catalog no. R758-07), stably transfected
T1 sequence (Q9Y5Y4 1-395): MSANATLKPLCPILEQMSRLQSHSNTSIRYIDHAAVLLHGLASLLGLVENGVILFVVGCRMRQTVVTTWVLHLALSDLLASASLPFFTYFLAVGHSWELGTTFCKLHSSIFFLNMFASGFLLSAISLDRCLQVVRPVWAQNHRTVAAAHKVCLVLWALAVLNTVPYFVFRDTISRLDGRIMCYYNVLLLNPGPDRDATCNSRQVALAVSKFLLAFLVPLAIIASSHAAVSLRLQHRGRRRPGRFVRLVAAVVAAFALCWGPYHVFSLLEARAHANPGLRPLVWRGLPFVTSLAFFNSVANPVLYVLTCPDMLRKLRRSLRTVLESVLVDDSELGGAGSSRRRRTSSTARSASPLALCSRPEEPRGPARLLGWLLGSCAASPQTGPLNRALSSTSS
Assay: Prostaglandin D2 binding inhibition assay (scintillation proximity assay, 3H PGD2, membranes of transfected CHO cells)
Settings: SPA, 5.5 nM 3H PGD2, CHO-K1 FLP-In human DP2 membranes; upper limit determinable 30 μM; read-out: IC50 ranges for inhibition of PGD2 binding to human DP2
Procedure: The ability of compounds to inhibit binding of prostaglandin D2 (PGD2) to the human DP2 receptor was measured using a scintillation proximity assay (SPA). Chinese Hamster Ovary FLP-In cell lines (CHO-K1 FLP-In, Invitrogen, catalog no. R758-07) were stably transfected with the human DP2 gene (Genebank: AY507142). Cell lines were grown in suspension in EX-CELL 302 CHO Serum-free medium (Sigma, catalog no. 14324C) supplemented with 1% Fetal Bovine Serum (Invitrogen no. 10099-141), 2 mM L-glutamine (Invitrogen, catalog no. 25030-081) and 0.5 mg/ml Hygromycin B (Invitrogen, catalog no. 10687-010). Cells were collected by centrifugation in a Beckman Coulter Allegra X-12R centrifuge at 150×g for 5 minutes at room temperature.
Membranes from transfected cells were isolated for binding assays. Cell pellets containing approximately 2×10^9 cells were resuspended in 35 ml of cold membrane homogenization buffer (10 mM Tris (Sigma, catalog no. T2663), 1 mM EDTA (Fluka BioChemika no. 03690), and 70 μl of protease inhibitor cocktail (Sigma, catalog no. P8340)). Cells were homogenized with 30 strokes of a dounce homogenizer (Kontes, catalog no. 885303-0040), and the solution centrifuged at 200×g for 10 minutes. The supernatant was transferred to a 50 ml Oakridge tube (Beckman, catalog no. 357000) and centrifuged in a Beckman Coulter Avanti J-26×PI centrifuge with a JA30.50 rotor at 81,000×g for 1 hour at 15° C. The pellet was resuspended in membrane storage buffer (50 mM Tris (Sigma, catalog no. T2663), 2.5 mM EDTA (Fluka BioChemika no. 03690), 5 mM magnesium chloride (Sigma, catalog no. M1028), 100 mg/ml sucrose (Sigma, catalog no. 50389) and a 1:500 dilution of protease inhibitor cocktail (Sigma, catalog no. P8340)) and the total protein was quantitated using a BCA protein measurement kit (Pierce, catalog no. 23225). Aliquots were frozen at −80° C. until used. Compounds were tested for their ability to inhibit PGD2 binding to the purified membranes. 5 μg of the purified membranes, 0.25 mg of wheat germ agglutinin PVT SPA beads (GE Healthcare, catalog no. RPNQ0060) and 5.5 nM of ^3H PGD2 (PerkinElmer, catalog no. NET-616) were mixed in assay buffer ((50 mM Tris (Sigma, catalog no. T2663), 10 mM magnesium chloride (Sigma, catalog no. M1028), 100 mM sodium chloride (Sigma, catalog no. S6546) and 0.1% bovine serum albumin (Sigma, catalog no. A2153)). Using a Multidrop bulk dispenser, 75 μl of the assay mixture was dispensed in Optiplates (PerkinElmer, catalog no. 6007299) containing the compounds to be tested. After a 60 minute incubation period at room temperature, the plates were read on a PerkinElmer Topcount NXT HTS, and individual wells were quantitated as counts per minute (CPM). Data were expressed as a percent of the difference between the maximum and minimum responses. IC50 values (the concentration of compound producing 50% of the maximal response) were determined using a two-parameter non-linear regression algorithm analyzed using CambridgeSoft Bioassay software. Table 2 gives the range of IC50 values for claimed compounds in the binding assay.

IC50	SMILES
< 1 µM	O=C(O)Cn1c(=O)n(C2CCN(S(=O)(=O)c3ccc(Cl)cc3F)CC2)c2ncccc21 [Compound 30, 2-(3-(1-(4-chloro-2-fluorophenylsulfonyl)piperidin-4-yl)-2-oxo-2,3-dihydro-1H-imidazo[4,5-b]pyridin-1-yl)acetic acid]
< 1 µM	O=C(O)Cn1c(=O)n(C2CCN(S(=O)(=O)c3ccc(Cl)cc3Cl)CC2)c2ncccc21 [Compound 31, 2-(3-(1-(2,4-dichlorophenyl-sulfonyl)piperidin-4-yl)-2-oxo-2,3-dihydro-1H-imidazo[4,5-b]pyridin-1-yl)acetic acid]
1 to 10 µM	O=C(O)Cn1c(=O)n(C2CCN(S(=O)(=O)c3cccc4ccccc34)CC2)c2ncccc21 [Compound 32, 2-(3-(1-(naphthalen-1-ylsulfonyl)piperidin-4-yl)-2-oxo-2,3-dihydro-1H-imidazo[4,5-b]pyridin-1-yl)acetic acid]
1 to 10 µM	O=C(O)Cn1c(=O)n(C2CCN(S(=O)(=O)c3ccccc3OC(F)(F)F)CC2)c2ncccc21 [Compound 33, 2-(2-oxo-3-(1-(2-(trifluoromethoxy)phenylsulfonyl)piperidin-4-yl)-2,3-dihydro-1H-imidazo[4,5-b]pyridin-1-yl)acetic acid]
1 to 10 µM	O=C(O)Cn1c(=O)n(C2CCN(S(=O)(=O)C3CCCCC3)CC2)c2ncccc21 [Compound 34, 2-(3-(1-(cyclohexylsulfonyl)piperidin-4-yl)-2-oxo-2,3-dihydro-1H-imidazo [4,5-b]pyridin-1-yl)acetic acid]
1 to 10 µM	O=C(O)Cn1c(=O)n(C2CCN(S(=O)(=O)c3ccc(Cl)c(Cl)c3)CC2)c2ncccc21 [Compound 35, 2-(3-(1-(3,4-dichlorophenyl-sulfonyl)piperidin-4-yl)-2-oxo-2,3-dihydro-1H-imidazo[4,5-b]pyridin-1-yl)acetic acid]
< 1 µM	Cc1cc(F)ccc1S(=O)(=O)N1CCC(n2c(=O)n(CC(=O)O)c3cccnc32)CC1 [Compound 36, 2-(3-(1-(4-fluoro-2-methylphenyl-sulfonyl)piperidin-4-yl)-2-oxo-2,3-dihydro-1H-imidazo[4,5-b]pyridin-1-yl)acetic acid]
1 to 10 µM	O=C(O)Cn1c(=O)n(C2CCN(S(=O)(=O)c3cccc(Cl)c3)CC2)c2ncccc21 [Compound 37, 2-(3-(1-(3-chlorophenyl-sulfonyl)piperidin-4-yl)-2-oxo-2,3-dihydro-1H-imidazo[4,5-b]pyridin-1-yl)acetic acid]
1 to 10 µM	Cc1cccc(S(=O)(=O)N2CCC(n3c(=O)n(CC(=O)O)c4cccnc43)CC2)c1 [Compound 38, 2-(2-oxo-3-(1-(m-tolylsulfonyl)piperidin-4-yl)-2,3-dihydro-1H-imidazo[4,5-b]pyridin-1-yl)acetic acid]
1 to 10 µM	O=C(O)Cn1c(=O)n(C2CCN(S(=O)(=O)c3ccc(C(F)(F)F)cc3)CC2)c2ncccc21 [Compound 39, 2-(2-oxo-3-(1-(4-(trifluoromethyl)phenylsulfonyl)piperidin-4-yl)-2,3-dihydro-1H-imidazo[4,5-b]pyridin-1-yl)acetic acid]
1 to 10 µM	O=C(O)Cn1c(=O)n(C2CCN(S(=O)(=O)c3ccc(F)c(F)c3)CC2)c2ncccc21 [Compound 40, 2-(3-(1-(3,4-difluorophenylsulfonyl)piperidin-4-yl)-2-oxo-2,3-dihydro-1H-imidazo[4,5-b]pyridin-1-yl)acetic acid]
1 to 10 µM	O=C(O)Cn1c(=O)n(C2CCN(S(=O)(=O)c3cccc(C(F)(F)F)c3)CC2)c2ncccc21 [Compound 41, 2-(2-oxo-3-(1-(3-(trifluoromethyl)phenylsulfonyl)piperidin-4-yl)-2,3-dihydro-1H-imidazo[4,5-b]pyridin-1-yl)acetic acid]
1 to 10 µM	O=C(O)Cn1c(=O)n(C2CCN(S(=O)(=O)c3ccc(OC(F)(F)F)cc3)CC2)c2ncccc21 [Compound 42, 2-(2-oxo-3-(1-(4-(trifluoromethoxy)phenylsulfonyl)piperidin-4-yl)-2,3-dihydro-1H-imidazo[4,5-b]pyridin-1-yl)acetic acid]
10 to 30 µM	CCS(=O)(=O)N1CCC(n2c(=O)n(CC(=O)O)c3cccnc32)CC1 [Compound 43, 2-(3-(1-(ethylsulfonyl)piperidin-4-yl)-2-oxo-2,3-dihydro-1H-imidazo[4,5-b]pyridin-1-yl)acetic acid]
1 to 10 µM	CCCS(=O)(=O)N1CCC(n2c(=O)n(CC(=O)O)c3cccnc32)CC1 [Compound 44, 2-(2-oxo-3-(1-(propylsulfonyl)piperidin-4-yl)-2,3-dihydro-1H-imidazo[4,5-b]pyridin-1-yl)acetic acid]
1 to 10 µM	O=C(O)Cn1c(=O)n(C2CCN(S(=O)(=O)c3cccc(OC(F)(F)F)c3)CC2)c2ncccc21 [Compound 45, 2-(2-oxo-3-(1-(3-(trifluoromethoxy)phenylsulfonyl)piperidin-4-yl)-2,3-dihydro-1H-imidazo[4,5-b]pyridin-1-yl)acetic acid]
1 to 10 µM	Cc1ccc(S(=O)(=O)N2CCC(n3c(=O)n(CC(=O)O)c4cccnc43)CC2)cc1 [Compound 46, 2-(2-oxo-3-(1-(p-tolylsulfonyl)piperidin-4-yl)-2,3-dihydro-1H-imidazo[4,5-b]pyridin-1-yl)acetic acid]
10 to 30 µM	COc1ccc(S(=O)(=O)N2CCC(n3c(=O)n(CC(=O)O)c4cccnc43)CC2)cc1OC [Compound 47, 2-(3-(1-(3,4-dimethoxyphenyl-sulfonyl)piperidin-4-yl)-2-oxo-2,3-dihydro-1H-imidazo[4,5-b]pyridin-1-yl)acetic acid]
1 to 10 µM	CC(C)CS(=O)(=O)N1CCC(n2c(=O)n(CC(=O)O)c3cccnc32)CC1 [Compound 48, 2-(3-(1-(isobutylsulfonyl)piperidin-4-yl)-2-oxo-2,3-dihydro-1H-imidazo[4,5-b]pyridin-1-yl)acetic acid]
< 1 µM	O=C(O)Cn1c(=O)n(C2CCN(S(=O)(=O)c3cccc4cccnc34)CC2)c2ncccc21 [Compound 49, 2-(2-oxo-3-(1-(quinolin-8-ylsulfonyl)piperidin-4-yl)-2,3-dihydro-1H-imidazo[4,5-b]pyridin-1-yl)acetic acid]
1 to 10 µM	Cc1cc(C)c(S(=O)(=O)N2CCC(n3c(=O)n(CC(=O)O)c4cccnc43)CC2)c(C)c1 [Compound 50, 2-(3-(1-(mesitylsulfonyl)piperidin-4-yl)-2-oxo-2,3-dihydro-1H-imidazo[4,5-b]pyridin-1-yl)acetic acid]
< 1 µM	O=C(O)Cn1c(=O)n(C2CCN(S(=O)(=O)c3ccc(F)cc3Cl)CC2)c2ncccc21 [Compound 51, 2-(3-(1-(2-chloro-4-fluorophenyl-sulfonyl)piperidin-4-yl)-2-oxo-2,3-dihydro-1H-imidazo[4,5-b]pyridin-1-yl)acetic acid]
1 to 10 µM	CC(C)S(=O)(=O)N1CCC(n2c(=O)n(CC(=O)O)c3cccnc32)CC1 [Compound 52, 2-(3-(1-(isopropylsulfonyl)piperidin-4-yl)-2-oxo-2,3-dihydro-1H-imidazo[4,5-b]pyridin-1-yl)acetic acid]
1 to 10 µM	Cc1ccc(S(=O)(=O)N2CCC(n3c(=O)n(CC(=O)O)c4cccnc43)CC2)s1 [Compound 53, 2-(3-(1-(5-methylthiophen-2-ylsulfonyl)piperidin-4-yl)-2-oxo-2,3-dihydro-1H-imidazo[4,5-b]pyridin-1-yl)acetic acid]
